Experimental data: USRE35044E, “Cyanine compounds” (Asahi Chemical Co., Ltd., priority 1987, dated 1995)
One block for each molecule: values may come before it.

Legend:
[1] = Test for solubility in solvent; format: physicochemical
Method: Each of cyanine dyes as shown below in Table 2 was dissolved in methanol and the solubility was determined at room temperature with the results indicated below in Table 2.

[2] = Absorption maximum and molar absorptivity in solution; format: physicochemical; set-up: ε: unit not given here

Structure (SMILES): CCOc1ccc2c(c1)C(C)(C)C(=CC=CC=CC=CC1=[N+](C)c3ccc(OCC)cc3C1(C)C)N2C [Compound A]
solubility in solvents (in words) [1]: does not exhibit good solubility

Structure (SMILES): CCOc1ccc2c(c1)C(C)(C)C(=CC=CC=CC1=[N+](C)c3ccc(OCC)cc3C1(C)C)N2C [Compound B]
solubility in solvents (in words) [1]: not satisfactory in solubility

Structure (SMILES): CCN1C(=CC=CC=CC2=[N+](CC)c3c(OC)cc(OC)cc3C2(C)C)C(C)(C)c2cc(OC)cc(OC)c21 [Preparation Example 1]
ε ([2]; alcohol): 1.84×10^5 | λmax ([2]; alcohol): 693 nm

Other lines, results leading:

ε ([2]; dichloromethane): 1.72×10^5
Structure (SMILES): CCOc1cc(OCC)c2c(c1)C(C)(C)C(=CC=CC=CC1=[N+](CC)c3c(OCC)cc(OCC)cc3C1(C)C)N2CC [Preparation Example 2]

ε ([2]; dichloroethane): 1.75×10^5
Structure (SMILES): CCOc1cc(C)c2c(c1)C(C)(C)C(=CC=CC=CC1=[N+](CC)c3c(C)cc(OCC)cc3C1(C)C)N2CC [Preparation Example 7]
